row,SMILES,melting point [°C]
1,CCn1c(=O)ccn(-c2ccc([N+](=O)[O-])cc2)c1=O,182
2,NC(=NO)c1ccc(-c2ccc(Cl)cc2)o1,167 to 169
3,CC(C)OC(=O)c1ccc(OCc2ccccc2)cc1,62 to 63
4,CCCCCCCCc1c(C)nc2cc(C)nn2c1O,199
5,Clc1ccc(-c2nn(-c3ccc(Br)cc3)cc2CCc2nnn[nH]2)cc1,164 to 166
6,CC(Sc1ccc(OC(C)(C)C(=O)O)cc1)c1cccc2c1cnn2-c1ccc(C(F)(F)F)cc1 (racemic),85 to 90
7,CC(=O)c1cnc2onc(C)c2c1O,162
8,Cc1c(O)c(=O)ccn1Cc1ccccc1,205 to 207
9,CC1(C(O)C(c2cccc(Cl)c2)n2ccnc2)COC1 (stereo unspecified),145 to 146
10,COc1ccc2c(-c3ccccc3F)noc2c1,101 to 103
11,CCCCCCCCCCCc1nc(NC(=O)Nc2c(C(C)C)cccc2C(C)C)n[nH]1,168 to 170
12,CC(NC(=O)NCCCCC1CCSS1)C(=O)NS(N)(=O)=O (stereo unspecified),156 to 157
13,Cn1c(N)c(C#N)c(Cl)c1C=O,282 to 285
14,CNc1cc(-c2ccc(Cl)cc2)nn1C,112
15,CS(=O)c1ccc(C2=C(c3ccccc3)C(=O)C(C)(C)O2)cc1Cl (stereo unspecified),120 to 121
16,CCOC(=O)/C(=N\O[C@H]1CC[C@H](Cl)CC1)c1csc(N)n1,155
17,Cc1c(CCC#N)c2c(c(C(C)C)c1OCc1ccccc1)CC(C)(C)O2,158 to 159
18,CC(C)(C)OC(=O)Nc1ccc(OC2CN(C(c3ccccc3)c3ccccc3)C2)cc1,149 to 151
19,COC(=O)c1cscc1NC(=O)NCCCCCBr,92 to 93.5
20,O=Cc1ccc(O)c(O)c1Cl,193 to 195
21,Cc1ncccc1NC(=NC#N)NC(NC(=O)CCCCc1ccccc1)C(C)(C)C (stereo unspecified),133 to 134
22,Cc1ccccc1C1(c2ccc(OC(F)F)cc2)N=C(N)N(C)C1=O (stereo unspecified),85 to 90
23,Cc1nc2c(O)cc(C(=O)N(C)C)cc2n1COCC[Si](C)(C)C,150 to 151
24,CCOC(=O)/C=C/C=Cc1ccc(OCCc2nc(-c3ccccc3)oc2C)cc1,102 to 103
25,CCOC(C)c1ccc(OCCOc2ncnc(NS(=O)(=O)c3ccc(C(C)(C)C)cc3)c2-c2ccc(C)cc2)cc1 (stereo unspecified),139 to 140
26,C#CC1(O)C=CC2C3CCC4=CC(=O)CC(OC(C)=O)C4C3CCC21CC (stereo unspecified),123 to 126
27,CN1C=CC2=C(C=CCC2)CC1=O,81 to 82
28,CCOC(=O)c1cnc2ccc(Oc3ccccc3)nc2c1Cl,133 to 137

# Now from value to compound:
row,melting point [°C],SMILES
1,77 to 79,COc1ccc(COCc2cccc(C(=O)O)c2)cc1OC1CC2CCC1C2 (stereo unspecified)
2,195 to 197,O=C(Nc1cc2c(cc1C(=O)c1ccccc1)OCO2)c1ccccc1
3,86.5 to 93.5,Cc1cc(S(=O)(=O)c2c[nH]c3ccc(F)cc23)ccc1C1CCN(C)C1 (stereo unspecified)
4,208 to 210,CCc1cccc(CC)c1NC(=O)NC1(c2cccs2)CCCCC1
5,187 to 189,Cc1ccc(-c2ccc3c(c2)C=C(C(=O)Nc2ccc(C#N)cc2)CCO3)cc1
6,86 to 87,COC(=O)c1ccc(C(F)(F)F)cc1NC(C)=O
7,145 to 148,CCCCNC(=O)NS(=O)(=O)c1ccccc1-c1ccc(C(=O)OC)o1
8,200 to 202,O=C1C(=O)c2ccccc2C2=C1SCC(CN1CCC(CO)CC1)O2 (stereo unspecified)
9,114 to 116,O=S(=O)(c1ccccc1)N1CCC(C(=NCc2ccc(F)cc2)c2ccc(F)cc2)CC1
10,255 to 257,N#Cc1ccc(-c2cnc3[nH]c(=O)n(CC4CCCCC4)c3n2)cc1
11,160 to 162,CCOC(=O)CCn1c(C(=O)NC(N)=S)cc2ccccc21
12,140 to 142,COc1cc(NC(=O)c2ccccc2Cl)ccc1C(=O)N1CCCC(OCCNS(=O)(=O)C(F)(F)F)c2cc(Cl)ccc21 (stereo unspecified)
13,224 to 225,COc1cc(C(=O)O)ccc1CN1CCOc2ccc(NC(=O)CC3CCCC3)cc21

# From a melting point compilation (Tetko et al.; mined from patent text by program, amines drawn as free bases though some values may be those of a salt)
